According to publication PMC11960070 (Microbiology Spectrum, 2025):
Where no end group is shown, it is not given here.

Experiments:
mAb 8C1 = assay: MIA: 8C1 reactivity with OspC-derived peptides / alanine scan
[1] = tested on: B. burgdorferi seropositive serum samples; assay: MIA: Lyme disease-positive human serum IgG binding to Ala-substituted 130–150 peptides; settings: n = 26 sera, 1:100

Row | Substance | 8C1 reactivity with OspCA peptide (mAb 8C1) | Effect of Ala substitution on peptide recognition by human serum samples [1]
1 | 130–150: OspCA-derived peptide composed of residues 130-150 (CSETFTNKLKEKHTDLGKEGV; UniProt Q07337 130-150, looked up, fragment) | reacted strongly | 
2 | D144: 130–150 peptide with single Ala substitution at D144 (CSETFTNKLKEKHTALGKEGV; also: biotinylated, site not given here; UniProt Q07337 130-150, looked up, variant D144A) |  | negatively affected
3 | E140: 130–150 peptide with single Ala substitution at E140 (CSETFTNKLKAKHTDLGKEGV; also: biotinylated, site not given here; UniProt Q07337 130-150, looked up, variant E140A) |  | negatively affected
